Laboratory results published in patent US20170210757A1 (ALFA WASSERMANN S.P.A., priority 2003, published 2017).
Like-named read-outs stand apart in the source and are kept apart here.

Columns and labels:
[1] = Hygroscopicity and humidity-dependent transition between polymorphic forms; assay type: physicochemical; conditions: for hygroscopicity: reversibly absorb water under suitable conditions of pressure and humidity
Text: Both the form γ and the forms α and β of rifaximin are hygroscopic, they reversibly absorb water in time in the presence of suitable environmental conditions of pressure and humidity and are susceptible of transformation from one form into another.

[2] = Bioavailability in dogs by oral route (plasma rifaximin by LC-MS/MS); assay type: in vivo, Beagle female dogs
Protocol: Twelve 20 week pure-bred Beagle females dogs, and weighing between 5.0 and 7.5 kg, have been divided into three groups of four.
Each sample was transferred into an heparinized tube and was centrifuged; the plasma was divided into 50μl two aliquots and frozen at −20° C.
Tmax=time at which the Cmax is reached;
AUC=area under the concentration-time curve calculated through the linear trapezoidal rule.

[3] = Intrinsic dissolution test (USP 27 monograph 1087); assay type: physicochemical
Text: The die-holder containing the compacted pellet has then been mounted on a laboratory stirring device, immersed in a dissolution medium and rotated by means of the stirring device.
A compacted pellet was formed in the die with a single face of defined area exposed on the bottom of the die so that from 50% to 75% of the compacted pellet could dissolve in an appropriate dissolution medium.
The holder containing the die was mounted on a laboratory stirring device, immersed in a glass vessel containing a dissolution medium and rotated at a rotation speed of 100 rpm by means of the stirring device, while keeping the temperature of the dissolution medium at 37±0.5° C. […]

[4] = single oral administration of 100 mg/kg by capsules to female dogs, plasma, listed as Polimorph α, 100 mg/kg
[5] = single oral administration of 100 mg/kg by capsules to female dogs, plasma, listed as Polimorph β, 100 mg/kg
[6] = single oral administration of 100 mg/kg by capsules to female dogs, plasma, listed as Polimorph γ, 100 mg/kg

## CO[C@H]1/C=C/O[C@@]2(C)Oc3c(C)c(O)c4c(O)c(c5c(nc6cc(C)ccn65)c4c3C2=O)NC(=O)/C(C)=C\C=C\[C@H](C)[C@H](O)[C@@H](C)[C@@H](O)[C@@H](C)[C@H](OC(C)=O)[C@@H]1C [rifaximin α, rifaximin]
[1]; relative humidity higher than 50% for 12 to 48 hours
  solid form transition under humidity: changes into the polymorphic form β
[1]
  hygroscopicity: hygroscopic
[2]; Beagle, dog, plasma, oral, 100 mg/kg, pharmaceutical composition comprising the polymorphic form, conditions not stated, read-out: Cmax (summary embodiment)
  Cmax: ~2 ng/mL
[2]; female, Beagle, dog, plasma, po, 100 mg/kg, single oral administration of 100 mg/kg by capsules to female dogs
  Tmax: 9.5 h
[2]; pharmaceutical composition comprising the polymorphic form, conditions not stated, listed as rifaximin in polymorphic form α
  AUC0-24 h (summary embodiment): about 13 ng·h/ml
[2]; [4]
  AUC0-24 Mean: 13 ng·h/mL
  Cmax Mean: 2.632 ng/mL
[3]; phosphate buffer pH 7.4, 37°C, with sodium lauryl sulfate, also at 0.1% and 0.3% and without surfactant
  disintegration of the compacted pellet (time): ≤ 10 min

## CO[C@H]1/C=C/O[C@@]2(C)Oc3c(C)c(O)c4c(O)c(c5c(nc6cc(C)ccn65)c4c3C2=O)NC(=O)/C(C)=C\C=C\[C@H](C)[C@H](O)[C@@H](C)[C@@H](O)[C@@H](C)[C@H](OC(C)=O)[C@@H]1C [rifaximin β, rifaximin]
[1]
  hygroscopicity: hygroscopic
[2]; pharmaceutical composition comprising the polymorphic form, conditions not stated, listed as rifaximin in polymorphic form β
  AUC0-24 h (summary embodiment): about 11 ng·h/ml
[2]; [5]
  AUC0-24 Mean: 11 ng·h/mL
  tmax Mean: 4 h
[3]; 0.1M aqueous phosphate buffer pH 7.4 with 0.45% sodium lauryl sulfate, 37°C, listed as β polymorph
  Intrinsic dissolution rate: 0.0147 mg/min/cm^2
[3]; 15 min, 0.1M aqueous phosphate buffer pH 7.4 with 0.45% sodium lauryl sulfate, 37°C, listed as β polymorph
  Rifaximin dissolved: 0.28 mg/cm^2
[3]; 30 min, 0.1M aqueous phosphate buffer pH 7.4 with 0.45% sodium lauryl sulfate, 37°C, listed as β polymorph
  Rifaximin dissolved: 0.50 mg/cm^2
[3]; 45 min, 0.1M aqueous phosphate buffer pH 7.4 with 0.45% sodium lauryl sulfate, 37°C, listed as β polymorph
  Rifaximin dissolved: 0.71 mg/cm^2
[3]; 60 min, 0.1M aqueous phosphate buffer pH 7.4 with 0.45% sodium lauryl sulfate, 37°C, listed as β polymorph
  Rifaximin dissolved: 0.94 mg/cm^2
[3]; pharmaceutical composition comprising the polymorphic form, conditions not stated
  intrinsic dissolution rate (summary embodiment): about 0.01 mg/min/cm^2

## CO[C@H]1/C=C/O[C@@]2(C)Oc3c(C)c(O)c4c(O)c(c5c(nc6cc(C)ccn65)c4c3C2=O)NC(=O)/C(C)=C\C=C\[C@H](C)[C@H](O)[C@@H](C)[C@@H](O)[C@@H](C)[C@H](OC(C)=O)[C@@H]1C [rifaximin γ, rifaximin]
[1]
  hygroscopicity: hygroscopic
[2]; female, Beagle, dog, plasma, po, 100 mg/kg, oral 100 mg/kg, Beagle female dogs, read-out: Cmax
  Cmax: 668 ng/mL
[2]; oral 100 mg/kg, Beagle female dogs
  absorption in respect of rifaximin α and rifaximin β: more than 102 times
[2]; pharmaceutical composition comprising the polymorphic form, conditions not stated, listed as rifaximin in polymorphic form γ
  AUC0-24 h (summary embodiment): about 4000 ng·h/ml
[2]; [6]
  AUC0-24 Mean: 3908 ng·h/mL
  Cmax Mean: 668.22 ng/mL
